Non-standard residues stand in square brackets, D forms with d. No end group written: not given here. dPhe(4-Cl) = N[C@H](Cc1ccc(Cl)cc1)C(=O)O; Aib = CC(C)(N)C(=O)O
Assays:
Type in all cases: cell-based
[1] = test system: ECV.304 cells; experiment: MTT assay, inhibition of proliferation of endothelial cells ECV.304; settings: for Percent Inhibition Proliferation: 72 hours (Table 1); for PERCENT INHIBITION OF PROLIFERATION: 72 hours (Table 2)
Method: (§1) 150 μl of medium was added to the wells of a 96-well tissue culture plate (Nunc, Denmark) followed by 30 μl of cell suspension. The plate was left in incubator (37° C., 5% CO2) overnight. Each of the seven peptides of the combination MuJ-7 were added at three molar concentrations of 10^−7M, 10^−8M and 10^−9M. 20 μl of MuJ-7 at three concentrations of N/10, N and 10N was added to marked wells of the 96-well plate. The value of N for each of the individual peptides was 10^−8M for VIP2, BOM1, SP1, VIP3, and SOM2 and 10^−7M for VIP1, and 10^−9M for SOM1. Each concentration was plated in triplicate. 20 μl of medium alone was added to control wells while wells without cells served as blanks. A total volume of 200 μl was ensured in each well and the plate was left in an incubator (37° C., 5% CO2). After 72 hours of incubation an MTT assay was performed and percentage inhibition in proliferation of treated cells was calculated with respect to control cells.
150 μl of medium was added to the wells of a 96-well tissue culture plate (Nunc, Denmark) followed by 30 μl of cell suspension. The plate was left in incubator (37° C., 5% CO2) overnight. Novel peptides shown below were incubated with cells at concentration range of 10^−7 to 10^−9 M (except DT71 at concentration range 10^−8 to 10^−10 M). Each concentration was plated in triplicates. 20 μl of medium alone was added to control wells while wells without cells served as blanks. A total volume of 200 μl was ensured in each well and plate was left in incubator (37° C., 5% CO2). After 72 hours of incubation an MTT assay was performed and percentage inhibition in proliferation of treated cells was calculated with respect to control cells.

[2] = test system: endothelial cells ECV.304; experiment: Migration assay across 8 μm polycarbonate filter transwell inserts; settings: for Percent inhibition in migration: N = 10^−8 M for VIP2, BOM1, SP1, VIP3, SOM2, 10^−7M for VIP1, 10^−9M for SOM1, 24 hours; for PERCENT INHIBITION MIGRATION: analog at optimum concentration −8M, 24 hours (Table 4)
Method: Polycarbonate filter transwell inserts (24 well size) with 8 μm pores (Nunc, Denmark) were used for the migration assay. ECV304 (10^4 cells/200 ul DMEM containing 0.1% BSA) was added to the upper chamber. The lower chamber contained 600 ul of DMEM with 0.1% BSA. Individual peptides of the composition MuJ-7 at six different concentrations each of N/100, N/10, N, 10N, 100N and 1000N were added directly to the upper well and the plate incubated at 37° C. for 24 hours. The cells migrated to the lower chamber were viewed randomly at five different phase-contrast microscopic fields and the total number of cells counted using Video Pro 32 Image Analysis system. Percent inhibition in migration was determined with reference to the Control. Similarly, […] different concentrations of N/100, N/10, N, 10N, 100N and 1000N of MuJ-7 were added directly to the upper well and the plate incubated at 37° C. for 24 hours. The cells migrated to the lower chamber were counted as described above.
Polycarbonate filter trasnwell inserts (24 well size) with 8 μm pores (Nuno, Denmark) were used for the migration assay. ECV304 (10^4 cells/200 ul DMEM containing 0.1% BSA) was added to the upper chamber. The lower chamber contained 600 ul of DMEM with 0.1% BSA. […] The sequence of each of the peptides added are described above. The cells migrated to the lower chamber were viewed randomly at five different phase-contrast microscopic fields and the total number of cells counted using Video Pro 32 Image Analysis system. Percent inhibition in migration was determined with reference to Control. […]

[3] = test system: EaHy.926; experiment: MTT assay, inhibition of proliferation of endothelial cells EaHy.926; settings: 72 hours
Method: as §1

[4] = test system: ECV304; experiment: Tube-like-structure (TLS) formation on Matrigel; settings: 24 hours; for Percent inhibition in TLS activity (TLS length): N = 10^−8 M for VIP2, BOM1, SP1, VIP3, SOM2, 10^−7M for VIP1, 10^−9M for SOM1; for INHIBITION OF TUBE LENGTH: peptide −8M
Method: Matrigel (350 ul) was placed into each well of a 24-well culture plate at 4° C. and was allowed to polymerize by incubation at 37° C. for 30 min. ECV304 (1.5×10^4) were seeded on the Matrigel in 500 ul DMEM supplemented with 10% FBS. MuJ-7 at four different concentrations of 0.25×, 0.5×, ×, & 5.0× were added and. the plate incubated at 37° C. for 24 hour. “×” denotes normal concentration of MuJ-7 where molar concentration of individual peptides was 10^−8 M for VIP2, BOM1, SP1, VIP3 and SOM2 and 10^−7 M for VIP1 and 10^−9 M for SOM1. […] Percent inhibition in tube area was determined with reference to untreated cells.
Matrigel (350 ul) was placed into each well of a 24-well culture plate at 4° C. and was allowed to polymerize by incubation at 37° C. for 30 min. ECV304 (1.5×10^4) were seeded on the Matrigel in 500 ul DMEM supplemented with 10% FBS. […] Percent inhibition in tube length was determined with reference to untreated cells.
Matrigel (350 ul) was placed into each well of a 24-well culture plate at 4° C. and was allowed to polymerize by incubation at 37° C. for 30 min. ECV304 (1.5×10^4) were seeded on the Matrigel in 500 ul DMEM supplemented with 10% FBS. Individual peptides of the composition MuJ-7 at three different concentrations each of N/10, N, and 10N were added and the plate incubated at 37° C. for 24 hours. […] Percent inhibition in tube length was determined with reference to Control. Similarly, three different concentrations of N/10, N, and 10N of MuJ-7 were added to the well and the plate incubated at 37° C. for 24 hours. Percent inhibition in tube length was determined with reference to Control as described previously (Table 10).

Substance	Percent Inhibition Proliferation ([1]; ECV.304, peptide 10^−7M) [%]	Percent Inhibition Proliferation ([1]; ECV.304, peptide 10^−8M) [%]	Percent Inhibition Proliferation ([1]; ECV.304, peptide 10^−9M) [%]	Percent inhibition in migration ([2]; 10N) [%]	Percent inhibition in migration ([2]; 100N) [%]	Percent inhibition in migration ([2]; 1000N) [%]	Percent inhibition in migration ([2]; N/10) [%]	Percent inhibition in migration ([2]; N/100) [%]	Percent inhibition in migration ([2]; N) [%]	Percent Inhibition Proliferation ([3]; EaHy.926, peptide 10^−7M) [%]	Percent Inhibition Proliferation ([3]; EaHy.926, peptide 10^−8M) [%]	Percent Inhibition Proliferation ([3]; EaHy.926, peptide 10^−9M) [%]	Percent inhibition in TLS activity (TLS length) ([4]; 10N) [%]	Percent inhibition in TLS activity (TLS length) ([4]; N/10) [%]	Percent inhibition in TLS activity (TLS length) ([4]; N) [%]	PERCENT INHIBITION OF PROLIFERATION ([1]; ECV304, 10^−7M) [%]	PERCENT INHIBITION OF PROLIFERATION ([1]; ECV304, 10^−8M) [%]	PERCENT INHIBITION OF PROLIFERATION ([1]; ECV304, 10^−9M) [%]	PERCENT INHIBITION MIGRATION [2] [%]	INHIBITION OF TUBE LENGTH [4] [%]
KPRRPYTDNYTRLRKQMAVKKYLNSILN-NH2 [VIP1]	15	17	16	62.60	66.52	0.00	52.60	37.53	69.40	25	24	23								
D-Phe-Cys-Tyr-D-Trp-Om-Thr-Pen-Thr-NH2 [SOM1]	20	20	19	88.75	73.73	25.00	78.50	84.27	88.11	36	36	22								
His-Ser-Asp-Ala-Val-4-Cl-D-Phe-Thr-Asp-Asn-Tyr-Thr-Arg-Leu-Arg-Lys-Gln-Leu-Ala-Val-Lys-Lys-Tyr-Leu-Asn-Ser-Ile-Leu-Asn-NH2 (HSDAV[dPhe(4-Cl)]TDNYTRLRKQLAVKKYLNSILN-NH2; N-terminus assumed; SMILES CC[C@H](C)[C@H](NC(=O)[C@H](CO)NC(=O)[C@H](CC(N)=O)NC(=O)[C@H](CC(C)C)NC(=O)[C@H](Cc1ccc(O)cc1)NC(=O)[C@H](CCCCN)NC(=O)[C@H](CCCCN)NC(=O)[C@@H](NC(=O)[C@H](C)NC(=O)[C@H](CC(C)C)NC(=O)[C@H](CCC(N)=O)NC(=O)[C@H](CCCCN)NC(=O)[C@H](CCCNC(=N)N)NC(=O)[C@H](CC(C)C)NC(=O)[C@H](CCCNC(=N)N)NC(=O)[C@@H](NC(=O)[C@H](Cc1ccc(O)cc1)NC(=O)[C@H](CC(N)=O)NC(=O)[C@H](CC(=O)O)NC(=O)[C@@H](NC(=O)[C@@H](Cc1ccc(Cl)cc1)NC(=O)[C@@H](NC(=O)[C@H](C)NC(=O)[C@H](CC(=O)O)NC(=O)[C@H](CO)NC(=O)[C@@H](N)Cc1c[nH]cn1)C(C)C)[C@@H](C)O)[C@@H](C)O)C(C)C)C(=O)N[C@@H](CC(C)C)C(=O)N[C@@H](CC(N)=O)C(N)=O) [VIP3]	21	25	22	23.90	11.62	0.00	32.80	0.00	92.45	21	9	24								
LMYPTYLK [VIP2]	24	25	22	88.15	92.90	0.00	91.75	0.00	89.05	32	28	42	3.3	0.0	1.0					
D-Phe-Gln-Trp-Aib-Val-Gly-His-Ile-NH2 ([dF]QW[Aib]VGHI-NH2; N-terminus assumed; SMILES CC[C@H](C)[C@H](NC(=O)[C@H](Cc1c[nH]cn1)NC(=O)CNC(=O)[C@@H](NC(=O)C(C)(C)NC(=O)[C@H](Cc1c[nH]c2ccccc12)NC(=O)[C@H](CCC(N)=O)NC(=O)[C@H](N)Cc1ccccc1)C(C)C)C(N)=O) [DT-26]																0	0	0	0	0
[dR]PKP[dF]Q[dW]F[dW]LL-NH2 [SP1]	18	24	22	92.65	78.10	18.10	94.10	13.97	90.50	49	32	37	3.0	14.4	8.9					
D-Leu-Met-Tyr-Pro-Thr-Tyr-Aib-Lys-OH ([dL]MYPTY[Aib]K-OH; N-terminus assumed; SMILES CSCC[C@H](NC(=O)[C@H](N)CC(C)C)C(=O)N[C@@H](Cc1ccc(O)cc1)C(=O)N1CCC[C@H]1C(=O)N[C@H](C(=O)N[C@@H](Cc1ccc(O)cc1)C(=O)NC(C)(C)C(=O)N[C@@H](CCCCN)C(=O)O)[C@@H](C)O) [DT-12]																20.3	16.1	15.5	58.7	17.1
